Measurements published in article PMC9014295 (Frontiers in Pharmacology, 2022).
Entries after “also recorded” stand apart in the source; their conditions may differ.

What was measured:
[1] = system: zebrafish liver, transgenic Tg (fabp10: dsRed) zebrafish larvae; assay: Visual assessment of liver toxicity in zebrafish; assay type: in vivo, Danio rerio; details: exposure 3 dpf for 72 h, imaged at 6 dpf
Procedure: Wild-type AB strain zebrafish (Danio rerio) and transgenic Tg (fabp10: dsRed) zebrafish in this study were reared in a standard laboratory environment with a 14-h light/10-h dark cycle at 28 ± 1°C ([Chen et al., 2019]). As previously described ([Zhang et al., 2020]), 3 days post-fertilization (3 dpf), zebrafish larvae were exposed to compound solutions at different concentrations for 72 h. For visual assessment of liver toxicity in zebrafish, the tested zebrafish larvae were imaged by using a fluorescence microscope to observe the liver phenotype of zebrafish larvae, 20 larvae per group.

[2] = cited from earlier work; for Hepatotoxicity compared with erythromycin: ref Björnsson, 2017
human L02 cells [3] = assay: Cell viability of L02 cells by CCK-8 assay; assay type: cell-based; details: 24 h, different concentrations
Procedure: As previously described by [Zhang et al. (2020]), the human L02 cells were incubated with each macrolide compounds at different concentrations for 24 h. For cell viability, Cell Counting Kit-8 (CCK-8; Dojindo, CK04) was used by following the manufacturer’s protocol and the absorbance of each well was measured at 450 nm using a microplate reader. For cell toxicity, the level of lactate dehydrogenase (LDH) release was determined by LDH activity assay kits (Dojindo, CK12) according to the manufacturer’s specification, and the absorbance at 490 nm in each well was measured by a microplate reader.

zebrafish fosab gene = assay: RNA-seq analysis of zebrafish larvae liver (fosab); assay type: in vivo, Danio rerio; details: 2 mM; for Fold change of fosab gene (RNA-seq): exposed 3 dpf, collected 6 dpf
Procedure: As previously described ([Han et al., 2018a]), the process of ribonucleic acid sequencing (RNA-seq) analysis was carried out by CapitalBio Corporation (Beijing, China). […] Cytoscape software was employed to map the drug–pathway network.

[4] = system: c-fos gene expression in L02 cells; assay: qRT-PCR of c-fos gene expression in L02 cells; assay type: cell-based, human; details: β-actin reference
Procedure: (§1) As previously described by [Zhang et al. (2020]), the treated zebrafish larvae liver and human L02 cells were collected for the qRT-PCR analysis. Total RNA were extracted from L02 cells and the dissected liver of larvae by using TRIzol reagent (Sigma–Aldrich, Saint Louis, MO, United States) and synthesized cDNA using M-MLV reverse transcriptase (Promega, M1708). The reaction of qRT-PCR was performed by LightCycler480. The relative mRNA levels were calculated with β-actin as the reference gene using the comparative […] quantization method. The specific primers (5′-3′) for amplification in zebrafish are as follows: fosab (F: TTACCAGCCTTAACGCCGAC, R: TGGACCATCCACTGCAAGTC), β-actin (F: CCGTGACATCAAGGAGAAG, R: ATACCGCAAGATTCCATACC). The primer sequences (5′-3′) for qRT-PCR in L02 cells are as follows: c-fos (F: TACTACCACTCACCCGCAGA, R: GGCCTCCTGTCATGGTCTTC), β-actin (F: CACCATTGGCAATGAGCGGTTC, R: AGGTCTTTGCGGATGTCCACGT).

[5] = system: fosab gene expression in zebrafish liver; assay: qRT-PCR of fosab gene expression in zebrafish liver; assay type: in vivo, Danio rerio; details: β-actin reference
Procedure: as §1

human L02 cells [6] = assay: LDH release assay in L02 cells; assay type: cell-based; details: 24 h, different concentrations
Procedure: As previously described by [Zhang et al. (2020]), the human L02 cells were incubated with each macrolide compounds at different concentrations for 24 h. […] For cell toxicity, the level of lactate dehydrogenase (LDH) release was determined by LDH activity assay kits (Dojindo, CK12) according to the manufacturer’s specification, and the absorbance at 490 nm in each well was measured by a microplate reader.

CC[C@H]1OC(=O)[C@H](C)[C@@H](O[C@H]2C[C@@](C)(OC)[C@@H](O)[C@H](C)O2)[C@H](C)[C@@H](O[C@@H]2O[C@H](C)C[C@H](N(C)C)[C@H]2O)[C@](C)(O)C[C@@H](C)CN(C)[C@H](C)[C@@H](O)[C@]1(C)O [Azithromycin]
Liver phenotype of zebrafish larvae ([1]; 0.1 mM): no toxicity to zebrafish liver
Liver phenotype of zebrafish larvae ([1]; 0.5 mm): hepatomegaly
Liver phenotype of zebrafish larvae ([1]; 1 mm): blackened liver tissue
Hepatotoxicity compared with erythromycin [2]: higher hepatotoxicity than erythromycin

CC[C@H]1OC(=O)[C@H](C)[C@@H](O[C@H]2C[C@@](C)(OC)[C@@H](O)[C@H](C)O2)[C@H](C)[C@@H](O[C@@H]2O[C@H](C)C[C@H](N(C)C)[C@H]2O)[C@](C)(OC)C[C@@H](C)C(=O)[C@H](C)[C@@H](O)[C@]1(C)O [Clarithromycin]
Hepatotoxicity compared with erythromycin [2]: less hepatotoxicity than erythromycin

CCC1OC(=O)C(C)C(OC2CC(C)(OC)C(O)C(C)O2)C(C)C(OC2OC(C)CC(N(C)C=O)C2O)C(C)(O)CC(C)CN(C)C(C)C(O)C1(C)O (stereo not drawn) [Impurity F]
Liver phenotype of zebrafish larvae ([1]; 0.5 mm): nearly non-toxic to zebrafish liver
Liver phenotype of zebrafish larvae ([1]; 1 mm): nearly non-toxic to zebrafish liver
Cytotoxicity / cell viability (CCK-8) (human L02 cells [3]): less cytotoxicity
Effect on fosab mRNA level (RNA-seq, GO enrichment analysis) (zebrafish fosab gene): no significant effect
c-fos mRNA level (qRT-PCR) [4]: did not affect

CCC1OC(=O)C(C)C(OC2CC(C)(OC)C(O)C(C)O2)C(C)C(OC2OC(C)CC(NC)C2O)C(C)(O)CC(C)CN(C)C(C)C(O)C1(C)O (stereo not drawn) [Impurity I]
Effect on fosab mRNA level (RNA-seq, GO enrichment analysis) (zebrafish fosab gene): upregulated significantly
Fold change of fosab gene (RNA-seq) (zebrafish fosab gene): 2.14
c-fos mRNA level (qRT-PCR) [4]: significantly upregulated

CCC1OC(=O)C(C)C(O)C(C)C(OC2OC(C)CC(N(C)C)C2O)C(C)(O)CC(C)CN(C)C(C)C(O)C1(C)O (stereo not drawn) [Impurity J]
Effect on fosab mRNA level (RNA-seq, GO enrichment analysis) (zebrafish fosab gene): upregulated significantly
Fold change of fosab gene (RNA-seq) (zebrafish fosab gene): 2.92
c-fos mRNA level (qRT-PCR) [4]: significantly upregulated

CCC1OC(=O)C(C)C(OC2CC(C)(OC)C(O)C(C)O2)C(C)C(OC2OC(C)CC([N+](C)(C)[O-])C2O)C(C)(O)CC(C)CN(C)C(C)C(O)C1(C)O (stereo not drawn) [Impurity L]
Liver phenotype of zebrafish larvae ([1]; 0.1 mM): hepatomegaly and caused the liver lost transparency with a brown coloration
Liver phenotype of zebrafish larvae ([1]; 0.5 mm): liver tissue became black
Effect on fosab mRNA level (RNA-seq, GO enrichment analysis) (zebrafish fosab gene): upregulated significantly
Fold change of fosab gene (RNA-seq) (zebrafish fosab gene): 4.10
fosab mRNA level (qRT-PCR) [5]: greatest effect
c-fos mRNA level (qRT-PCR) [4]: significantly upregulated; also recorded: greatest effect

CCC1OC(=O)C(C)C(OC2CC(C)(OC)C(O)C(C)O2)C(C)C(OC2OC(C)CC(N(C)C)C2O)C2(C)CC(C)C(=NC(C)C(O)C1(C)O)O2 (stereo not drawn) [Impurity Q]
Effect on fosab mRNA level (RNA-seq, GO enrichment analysis) (zebrafish fosab gene): upregulated significantly
Fold change of fosab gene (RNA-seq) (zebrafish fosab gene): 3.07
c-fos mRNA level (qRT-PCR) [4]: significantly upregulated

CCC1OC(=O)C(C)C(OC2CC(C)(OC)C(O)C(C)O2)C(C)C(OC2OC(C)CC(N(C)C)C2O)C(C)(O)CC(C)C2=NC(C)C(O2)C1(C)O (stereo not drawn) [Impurity R]
Effect on fosab mRNA level (RNA-seq, GO enrichment analysis) (zebrafish fosab gene): upregulated significantly
Fold change of fosab gene (RNA-seq) (zebrafish fosab gene): 2.18
c-fos mRNA level (qRT-PCR) [4]: significantly upregulated; also recorded: moderately lower than azithromycin

CCC1OC(=O)C(C)C(OC2CC(C)(OC)C(O)C(C)O2)C(C)C(OC2OC(C)CC(N(C)C)C2O)C(C)(O)CC(C)C(=NO)C(C)C(O)C1(C)O (stereo not drawn) [Impurity S]
Cytotoxicity / cell viability (CCK-8) (human L02 cells [3]): less cytotoxicity
Effect on fosab mRNA level (RNA-seq, GO enrichment analysis) (zebrafish fosab gene): no significant effect
c-fos mRNA level (qRT-PCR) [4]: did not affect

CC[C@H]1OC(=O)[C@H](C)[C@@H](O[C@H]2C[C@@](C)(OC)[C@@H](O)[C@H](C)O2)[C@H](C)[C@@H](O[C@@H]2O[C@H](C)C[C@H](N(C)C)[C@H]2O)[C@](C)(O)C[C@@H](C)/C(=N\OCOCCOC)[C@H](C)[C@@H](O)[C@]1(C)O [Roxithromycin]
Hepatotoxicity compared with erythromycin [2]: less hepatotoxicity than erythromycin

CC[C@H]1OC(=O)[C@H](C)C(=O)[C@H](C)[C@@H](O[C@@H]2O[C@H](C)C[C@H](N(C)C)[C@H]2O)[C@](C)(OC)C[C@@H](C)C(=O)[C@H](C)[C@H]2N(CCCCn3cnc(-c4cccnc4)c3)C(=O)O[C@]12C [Telithromycin]
Liver phenotype of zebrafish larvae ([1]; 0.1 mM): hepatomegaly
Liver phenotype of zebrafish larvae ([1]; 0.5 mm): a dark coloration and amorphous liver
Cytotoxicity (LDH release) (human L02 cells [6]): higher cytotoxicity than azithromycin
Liver injury in clinical use ([2]; ref Author Anonymous, 2012): pulled from the market due to severe acute liver injury
Cytotoxicity / cell viability (CCK-8) (human L02 cells [3]): higher cytotoxicity than azithromycin
fosab mRNA level (qRT-PCR) [5]: significantly elevated
c-fos mRNA level (qRT-PCR) [4]: significantly elevated
